These results are taken from patent US20260241049A1, “Radiopharmaceutical Compositions Targeting Glypican-3 and Uses Thereof” (RayzeBio, Inc., priority 2023, published 2026).

pKd: −log10 of the molar value. Positions of bridges follow the written chain, without caps; N, C: chain ends. Non-standard residues stand in square brackets, D forms with d. Residues, ends and D or L forms follow the SMILES beside them. NMeAla(isoquinolin-7-yl) = CN[C@@H](Cc1ccc2ccncc2c1)C(=O)O; 3Pal(6-Ph) = N[C@@H](Cc1ccc(-c2ccccc2)nc1)C(=O)O; Phe(4-COOH) = N[C@@H](Cc1ccc(C(=O)O)cc1)C(=O)O; NMeQ = CN[C@@H](CCC(N)=O)C(=O)O; NMehSer = CN[C@@H](CCO)C(=O)O; NMeK = CN[C@@H](CCCCN)C(=O)O; NMeC = CN[C@@H](CS)C(=O)O

In series [1] the target is Human Glypican3-Fc (Homo sapiens, UniProt P51654). In words: SPR binding to Glypican-3, Method B-4 (Glypican3-Fc on Protein A chip, peptide 40 nM). To be noted: SPR method B-4, peptide 40 nM. On the procedure:
A Protein A sensor chip (Cytiva) was inserted into a Biacore T200 (Cytiva), priming was performed three times with a running buffer: HBS-P+, pH 7.4 (Cytiva), and equilibration was carried out at a flow rate of […]. Gly pican3-Fc was allowed to react for 60 seconds at a flow rate of 10 μL/min. After capturing human Glypican3-Fc, a peptide solution prepared to 1 mM in DMSO solution was diluted with a running buffer to a final concentration of 1 μM. After that, the peptide solution was diluted to 40 nM in a similar manner. Using the above samples, peptide kinetics for Glypican3 was obtained by SPR measurement. Kinetics evaluation of Glypican3 was performed by SPR measurements at a flow rate of 30 μL/min. setting the association time to 120 seconds and the disassociation time to 600 seconds.
The obtained data by Method B-1, Method B-2, Method B-3 and Method B-4 were analyzed by follow. Single Cycle Kinetics was used as the kinetics evaluation model, and curve fitting was performed using Biacore T200 Evaluation Software Version 3.0 (Cytiva). The obtained sensorgram was subjected to curve fitting by the method of least squares and obtained KD values of the macrocyclic peptides in this disclosure for Glypican 3 protein are shown in Table 18.

The test system of series [2] is HepG2 (glypican 3 expressed on the cell surface). In words: Flow cytometry, biotinylated peptides followed by SAPE, HepG2. Type of series: cell-based, human. The following applies: biotinylated peptide at 100 nM followed by SAPE (1:250), on ice; versus SK-Hep1 negative control; FIG. 1. On the procedure: (§1) HepG2 (human hepatocellular carcinoma) and SK-HEP-1 (human hepatic adenocarcinoma) cell lines were purchased from the American Type Culture Collection (ATCC; Manassas, VA). Huh-7 (human hepatoblastoma) cell line was purchased from the Japanese Collection of Research Bioresources Cell Bank (JCRB Cell Bank, Osaka, Japan). HepG2 and SK-HEP-1 were grown in EMEM (FUJIFILM Wako Pure Chemical Corporation, 055-08975) with 10% fetal bovine serum (FBS; Thermo Fisher Scientific, 10270106) and 0.1% gentamicin (NACALAI TESQUE, 11980-14). Huh-7 was grown in DMEM (Thermo Fisher Scientific, 10567014) with 10% FBS and 0.1% gentamicin.
(§2) HepG2, SK-HEP-1 and Huh-7 cells were collected from the culture dish and stained with biotinylated peptides at 100 nM followed by Streptavidin, R-Phycoerythrin Conjugate (SAPE: Thermo Fisher Scientific, S866) (1:250). Cells were washed with phosphate-buffered saline (PBS; FUJIFILM Wako Pure Chemical Corporation, 043-29791) containing 0.5% FBS after addition of peptides or SAPE. All staining procedures were performed on ice. Samples were measured using CytoFLEX S (Beckman Coulter) and CytExpert ver2.4 software. All data were analyzed using FlowJo™ (BD Bioscience). For discrimination of live cells from dead cells, SYTOX™ Blue Dead Cell Stain (Thermo Fisher Scientific, S34857) (1:5000) was added prior to measurement.
(A flow cytometer gives signals particle by particle.)

Series [3] has as its system Huh-7 (glypican 3 expressed on the cell surface). In words: Flow cytometry, biotinylated peptides followed by SAPE, Huh-7. The format is cell-based, human. The following applies: biotinylated peptide at 100 nM followed by SAPE (1:250), on ice; versus SK-Hep1 negative control; FIG. 2. On the procedure:
as §1, §2

For series [4], the system named is late-stage liver cancer patients. To be noted: phase II clinical trial, 185 late-stage liver cancer patients; cited from earlier work.
Series [5] deals with HCC patient. To be noted: cited from earlier work.

Chain of Human Glypican3-Fc (P51654 with tags, fused parts or gaps limits assumed): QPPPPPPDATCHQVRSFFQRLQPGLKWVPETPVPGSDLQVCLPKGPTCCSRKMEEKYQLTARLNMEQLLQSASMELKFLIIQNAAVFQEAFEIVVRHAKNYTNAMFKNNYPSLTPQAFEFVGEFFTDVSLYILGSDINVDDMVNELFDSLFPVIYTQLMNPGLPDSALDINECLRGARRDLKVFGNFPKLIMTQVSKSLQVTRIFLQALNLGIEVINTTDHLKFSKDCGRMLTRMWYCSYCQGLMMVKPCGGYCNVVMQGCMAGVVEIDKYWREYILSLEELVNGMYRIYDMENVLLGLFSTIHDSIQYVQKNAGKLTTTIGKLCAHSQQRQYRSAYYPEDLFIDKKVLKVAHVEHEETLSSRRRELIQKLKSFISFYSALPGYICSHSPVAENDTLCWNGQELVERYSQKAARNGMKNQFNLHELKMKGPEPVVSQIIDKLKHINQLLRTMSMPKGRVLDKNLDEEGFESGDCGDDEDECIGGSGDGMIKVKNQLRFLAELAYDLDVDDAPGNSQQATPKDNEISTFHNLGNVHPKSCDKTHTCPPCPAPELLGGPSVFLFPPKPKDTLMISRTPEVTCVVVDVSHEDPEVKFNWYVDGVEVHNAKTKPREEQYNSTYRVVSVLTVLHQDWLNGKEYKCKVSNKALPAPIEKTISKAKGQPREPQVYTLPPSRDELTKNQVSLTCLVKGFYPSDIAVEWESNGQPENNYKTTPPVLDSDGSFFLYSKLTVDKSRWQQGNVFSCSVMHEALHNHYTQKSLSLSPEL

Take `CC[C@H](C)[C@@H]1NC(=O)[C@H](Cc2ccc(C(=O)O)cc2)NC(=O)[C@H](CCC(N)=O)N(C)C(=O)[C@H](CC(=O)O)NC(=O)[C@H](CCOC)N(C)C(=O)[C@H](CCCCN)N(C)C(=O)CSC[C@@H](C(N)=O)N(C)C(=O)[C@H](Cc2ccc(-c3ccccc3)nc2)NC(=O)CNC(=O)[C@H](Cc2ccc3ccncc3c2)N(C)C(=O)[C@H](Cc2ccc(O)cc2)NC(=O)[C@H]([C@@H](C)CC)NC1=O` [Conjugate 2-61] ({CH2CO}-[NMeK][NMehSer](Me)D[NMeQ][Phe(4-COOH)]IIY[NMeAla(isoquinolin-7-yl)]G[3Pal(6-Ph)][NMeC]-NH2; thioether N-12): in series [1], the pKd (in general, the negative decadic logarithm of the Kd, by convention in mol/L) was 9.64.

For the molecule `CC[C@H](C)[C@@H]1NC[C@H](Cc2ccc(C(=O)O)cc2)NC(=O)[C@H](CCC(N)=O)N(C)C(=O)[C@H](CC(=O)O)NC(=O)[C@H]([C@@H](C)CC)N(C)C(=O)[C@H](CCCCNC(C)=O)N(C)C(=O)CSC[C@@H](C(=O)NCC(=O)NCCOCCOCCOCCOCCOCCOCCOCCOCCOCCOCCC(=O)N[C@@H](CCCCNC(=O)CCCC[C@@H]2SC[C@@H]3NC(=O)N[C@@H]32)C(N)=O)N(C)C(=O)[C@H](Cc2ccc(-c3ccccc3)nc2)NC(=O)CNC(=O)[C@H](Cc2ccc3ccncc3c2)N(C)C(=O)[C@H](Cc2ccc(O)cc2)NC(=O)[C@H]([C@@H](C)CC)NC1=O` [PLB-60], in series [2], the “comparative staining of HepG2 cells (flow cytometry)” value is on record as “specific binding”. Moreover, the “comparative staining of Huh-7 cells (flow cytometry)” value in series [3] was “specific binding”.

Consider Codrituzumab, for which the “therapeutic efficacy compared with the control group” value in series [4] was “not impressive”. In series [5] (phase I clinical trials), the “tolerance in phase I clinical trials” value is given as “good immune tolerance”. For the same molecule, in series [5] (phase I, advanced hepatocellular carcinoma), the “anti-tumour effect in HCC patient” value is given as “anti-tumour effect”.
